# Assay results reported in ChEMBL document CHEMBL1201862, “PubChem BioAssay data set” (2004).
#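 48-hour exposure; five concentrations; linearly interpolated endpoints. At the GI50, growth is halved.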 Calls of active or inactive are those of the source. Cut-off read from the data, not from the text of the source: active = GI50 up to about 1.1 µM and inactive = higher.
# Tests used:
# Experiment in all cases: DTP human tumour cell line panel, 48 h
# [1] = tested on: XF498
# [2] = tested on: ACHN
# [3] = tested on: UACC-62
# [4] = tested on: RPMI-8226
# [5] = tested on: DMS-114
# [6] = tested on: HT-29
# [7] = tested on: HOP-92
# [8] = tested on: SK-MEL-2
# [9] = tested on: SF-539
# [10] = tested on: DLD-1
# [11] = tested on: SNB-75
# [12] = tested on: SF-268
# [13] = tested on: UACC-257
# [14] = tested on: COLO 205
# [15] = tested on: DMS-273
# [16] = tested on: M19-MEL
# [17] = tested on: Malme-3M
# [18] = tested on: HCC 2998
# [19] = tested on: OVCAR-5
# [20] = tested on: SNB-78
# [21] = tested on: RXF 393
# [22] = tested on: IGROV-1
# [23] = tested on: EKVX
# [24] = tested on: SK-MEL-28
# [25] = tested on: HOP-18
# [26] = tested on: LOX IMVI
# [27] = tested on: SNB-19
# [28] = tested on: HCT-116
# [29] = tested on: NCI-H23
# [30] = tested on: OVCAR-3
# [31] = tested on: OVCAR-4
# [32] = tested on: KM12
# [33] = tested on: OVCAR-8
# [34] = tested on: NCI-H460
# [35] = tested on: KM-20L2
# [36] = tested on: TK-10
# [37] = tested on: HOP-62
# [38] = tested on: NCI-H226
# [39] = tested on: SW-620
# [40] = tested on: SK-OV-3
# [41] = tested on: LXFL 529
# [42] = tested on: HCT-15
# [43] = tested on: A549
# [44] = tested on: U-251
# [45] = tested on: UO-31
# [46] = tested on: 786-0
# [47] = tested on: SN12C
# [48] = tested on: M14
# [49] = tested on: CAKI-1
# [50] = tested on: SF-295
# [51] = tested on: NCI-H522
# [52] = tested on: SR
# [53] = tested on: SK-MEL-5
# [54] = tested on: MOLT-4
# [55] = tested on: K562
# [56] = tested on: HL-60
# [57] = tested on: CCRF-CEM
smiles,measurement,setting,value
O=C1C(=O)N(c2nccs2)C(=O)C(=O)C1c1nc2ccccc2s1,GI50,[1],> 100 µM (inactive)
same,GI50,[2],> 100 µM (inactive)
same,GI50,[3],> 100 µM (inactive)
same,GI50,[4],> 100 µM (inactive)
same,GI50,[5],> 100 µM (inactive)
same,GI50,[6],> 100 µM (inactive)
same,GI50,[7],> 100 µM (inactive)
same,GI50,[8],> 100 µM (inactive)
same,GI50,[9],> 100 µM (inactive)
same,GI50,[10],> 100 µM (inactive)
same,GI50,[11],> 100 µM (inactive)
same,GI50,[12],> 100 µM (inactive)
same,GI50,[13],> 100 µM (inactive)
same,GI50,[14],> 100 µM (inactive)
same,GI50,[15],> 100 µM (inactive)
same,GI50,[16],> 100 µM (inactive)
same,GI50,[17],> 100 µM (inactive)
same,GI50,[18],> 100 µM (inactive)
same,GI50,[19],> 100 µM (inactive)
same,GI50,[20],> 100 µM (inactive)
same,GI50,[21],> 100 µM (inactive)
same,GI50,[22],> 100 µM (inactive)
same,GI50,[23],> 100 µM (inactive)
same,GI50,[24],> 100 µM (inactive)
same,GI50,[25],9.23 µM (inactive)
same,GI50,[26],> 100 µM (inactive)
same,GI50,[27],> 100 µM (inactive)
same,GI50,[28],> 100 µM (inactive)
same,GI50,[29],> 100 µM (inactive)
same,GI50,[30],> 100 µM (inactive)
same,GI50,[31],> 100 µM (inactive)
same,GI50,[32],> 100 µM (inactive)
same,GI50,[33],> 100 µM (inactive)
same,GI50,[34],> 100 µM (inactive)
same,GI50,[35],> 100 µM (inactive)
same,GI50,[36],> 100 µM (inactive)
same,GI50,[37],> 100 µM (inactive)
same,GI50,[38],> 100 µM (inactive)
same,GI50,[39],> 100 µM (inactive)
same,GI50,[40],> 100 µM (inactive)
same,GI50,[41],94 µM (inactive)
same,GI50,[42],> 100 µM
same,GI50,[43],> 100 µM (inactive)
same,GI50,[44],83 µM (inactive)
same,GI50,[45],> 100 µM (inactive)
same,GI50,[46],> 100 µM (inactive)
same,GI50,[47],> 100 µM (inactive)
same,GI50,[48],> 100 µM (inactive)
same,GI50,[49],> 100 µM (inactive)
same,GI50,[50],> 100 µM (inactive)
CC(C)C1=CC23CCC4C(C)(C(=O)O)CCCC4(C)C2CC1C1C(=O)N(c2ccccc2)C(=O)C13 (centres undefined),GI50,[1],35.2 µM (inactive)
same,GI50,[2],28.1 µM (inactive)
same,GI50,[3],38.6 µM (inactive)
same,GI50,[4],> 100 µM (inactive)
same,GI50,[5],35.4 µM (inactive)
same,GI50,[6],38.6 µM (inactive)
same,GI50,[7],32.7 µM (inactive)
same,GI50,[8],20.1 µM (inactive)
same,GI50,[9],51.3 µM (inactive)
same,GI50,[10],> 100 µM (inactive)
same,GI50,[11],53.2 µM (inactive)
same,GI50,[12],41.1 µM (inactive)
same,GI50,[13],26.1 µM (inactive)
same,GI50,[14],24.3 µM (inactive)
same,GI50,[15],36.1 µM (inactive)
same,GI50,[16],57.8 µM (inactive)
same,GI50,[17],67.9 µM (inactive)
same,GI50,[19],> 100 µM (inactive)
same,GI50,[51],49.1 µM (inactive)
same,GI50,[52],> 100 µM (inactive)
same,GI50,[21],27.4 µM (inactive)
same,GI50,[53],44.2 µM (inactive)
same,GI50,[54],> 100 µM (inactive)
same,GI50,[22],37.2 µM (inactive)
same,GI50,[24],53.2 µM (inactive)
same,GI50,[55],69.8 µM (inactive)
same,GI50,[25],> 100 µM (inactive)
same,GI50,[26],54.1 µM (inactive)
same,GI50,[27],46.9 µM (inactive)
same,GI50,[28],39.1 µM (inactive)
same,GI50,[29],> 100 µM (inactive)
same,GI50,[30],33.7 µM (inactive)
same,GI50,[31],> 100 µM (inactive)
same,GI50,[32],27.9 µM (inactive)
same,GI50,[33],64 µM (inactive)
same,GI50,[34],38.9 µM (inactive)
same,GI50,[35],39.6 µM (inactive)
same,GI50,[36],43.5 µM (inactive)
same,GI50,[56],95.9 µM (inactive)
same,GI50,[37],51.3 µM (inactive)
same,GI50,[38],15.5 µM (inactive)
same,GI50,[39],54 µM (inactive)
same,GI50,[57],56.6 µM (inactive)
same,GI50,[40],56.4 µM (inactive)
same,GI50,[41],43.9 µM (inactive)
same,GI50,[42],30.9 µM
same,GI50,[43],31.6 µM (inactive)
same,GI50,[44],36.6 µM (inactive)
same,GI50,[45],43.7 µM (inactive)
same,GI50,[46],55.2 µM (inactive)
same,GI50,[47],45.9 µM (inactive)
same,GI50,[48],40.5 µM (inactive)
same,GI50,[49],> 100 µM (inactive)
same,GI50,[50],51.2 µM (inactive)
